Test results reported in patent US20020123471A1, “LENTIVIRUS BASED VECTOR AND VECTOR SYSTEM” (priority 1997, published 2002).

Tested on: SIV[SIV] or SIV[MLV] vector particles
Assay: Inhibition of retroviral transfer of V1-luc into CEMx174 cells by reverse transcriptase inhibitor
Format: cell-based
Details: Simian immunodeficiency virus, CEMx174, read-out: transfer of V1-luc inhibited

Cc1cn([C@H]2C[C@H](N=[N+]=[N-])[C@@H](CO)O2)c(=O)[nH]c1=O [Zidovudine, 3′-azido-2′,3′-dideoxythymidine]
inhibition at 10 µM: 90%
